# Test results: patent US20040034225A1, “Aryl-substituted n, n-heterocyclic compounds, method for their preparationand their use in therapeutics and diagnostics” (priority 2000, published 2004)
# Where a name gives a salt, the structure may show the parent alone.
# Assays:
# [1] = test system: AAPH-induced oxidation of linoleate; assay: AAPH-induced peroxidation of linoleate (conjugated dienes at 234 nm); format: biochemical; conditions: for A234 (amount of conjugated dienes formed by the peroxidative process): absorption at 234 nm after 150 min at 37° C., aminopyrazines at 10 μM, AAPH alone 0.37; for antioxidative activity (inhibition of lipid peroxidation), in words: comment on Table 2, 10 μM; for antioxidative activity (inhibition of AAPH-induced peroxidation of linoleic acid), in words: FIG. 3
# Method: In a preferred embodiment the synthetic derivatives of 2-amino-1,4-pyrazine of family I, characterized by two aryl substituents in positions C-3 and C-5, were endowed with unexpectedly high antioxidative properties (FIG. 1). […] AAPH 4 mM was added to a micellar solution of linoleate (0.16 mM). The rate of conjugated dienes formation was measured at 234 nm at 37° C. All aminopyrazines were tested at 5 μM.
# The ability of the synthesized compounds to inhibit lipid peroxidation has been tested on AAPH-induced oxidation of linoleate. Briefly, a micellar solution of linoleate (0.16 mM) is incubated at 37° C. with 4 mM free radical generator AAPH (2,2′-azobis-2-methyl-propionamidine hydrochloride) in a microplate-based spectrophotometer. The production of conjugated dienes by the peroxidation of linoleate is monitored continuously at 234 nm. Antioxidants can both delay the onset of the oxidation process and reduce the rate of the oxidation.
# The amount of conjugated dienes formed by the peroxidative process evaluated by the absorption at 234 nm after 150 min at 37° C. All aminopyrazines were tested at 10 μM.
# [2] = test system: Human keratinocytes cells (HaCaT); assay: Protective effect against UVB in HaCaT cells (LDH release); format: cell-based; conditions: for Percentage Mortality (LDH assay), Unirradiated cells: 24 hours, no UVB; for mortality at 50 µM: Homo sapiens, light or radiation study, 30 min pre-incubation, UVB 200 mJ/cm^2, 24 hours, control 14.1, read-out: Percentage Mortality (LDH assay), UVB-irradiated cells
# Method: Human keratinocytes cells (HaCaT) were cultured in 96-well microplates. Tested compounds were solubilized in phosphate buffered saline (PBS) and applied to cells 30 minutes prior to the irradiation with UVB in a BIOSUN irradiation system (Vilbert-Lourmat). PBS was then replaced by the culture medium containing the tested compounds, and incubated for a further 24 hours before measuring the percentage of lactate dehydrogenase (LDH) released into the cell culture supernatant.
# Keratinocytes were pre-incubated with aminopyrazines (50 μM) for 30 min and then irradiated with UVB at 200 mJ/cm^2 in the absence of the antioxidant. The cells were then incubated for a further 24 hours in the culture medium containing the tested compounds before measuring the percentage of lactate dehydrogenase (LDH) released into the cell culture supernatant.
# Keratinocytes were pre-incubated with increasing concentrations of CD43 for 30 min and then irradiated with UVB at 200 mJ/cm^2. The cells were incubated for a further 24 hours before measuring the percentage of lactate dehydrogenase (LDH) released into the cell culture supernatant.
# [3] = FIG. 2, increasing concentrations of CD43
compound,measurement,setting,value
"Nc1ncc(-c2ccc(O)cc2)nc1-c1ccccc1 [CD51, 2-amino-3-phenyl-5-(p-hydroxyphenyl)-1,4-pyrazine]","rate of the oxidation, in words","[1]; FIG. 6, 5 μM",only reduces the rate of the oxidation
same,A234 (amount of conjugated dienes formed by the peroxidative process),[1],0.12
same,"antioxidative activity (inhibition of lipid peroxidation), in words",[1],more activity
same,"Percentage Mortality (LDH assay), Unirradiated cells",[2]; 50 μM,0%
same,mortality at 50 µM,[2]; 50 μM,7.3%
"Cc1nc2c(-c3ccccc3)[nH]c(-c3ccc(O)cc3)cn-2c1=O [CD53, 2-Methyl-6-(p-hydroxyphenyl)-8-phenyl-3,7-dihydroimidazolo[1,2-a]pyrazin-3-one]","onset of the oxidation process, in words","[1]; FIG. 6, 5 μM",firstly delays the onset of the oxidation process
"Cc1nc2c(-c3ccc(O)cc3)[nH]c(-c3ccc(O)cc3)cn-2c1=O [CD43, 2-Methyl-6,8-bis(p-hydroxyphenyl)-3,7-dihydroimidazolo[1,2-a]pyrazin-3-one]","onset of peroxidation, in words",[1]; [3],delay of the onset of peroxidation
same,"rate of oxidation after onset, in words",[1]; [3],lower rate of oxidation after onset
same,"protection against UVB-induced mortality, in words","[2]; FIG. 4, increasing concentrations of CD43, UVB 200 mJ/cm^2",very efficiently protect cells against UVB-induced mortality
same,"toxicity for cells, in words",[2]; controls,no toxicity for cells
"Nc1ncc(-c2ccccc2)nc1-c1ccc(O)cc1 [CD46, 2-amino-3-(p-hydroxyphenyl)-5-phenyl-1,4-pyrazine]",A234 (amount of conjugated dienes formed by the peroxidative process),[1],0.19
same,"Percentage Mortality (LDH assay), Unirradiated cells",[2]; 50 μM,0%
same,"protection against UVB-induced cytotoxicity, in words","[2]; 50 μM, UVB 200 mJ/cm^2",very efficiently reduced the cytotoxicity of UVB
same,mortality at 50 µM,[2]; 50 μM,0%
"CCOC(=O)C(C)Nc1nc(NC(C)C(=O)OCC)c(-c2ccc(O)cc2)nc1-c1ccc(O)cc1 (centres unmarked) (as salt: hydrochloride) [JFC38, 2,6-Bis(1′-ethoxycarbonyl-ethylamino)-3,5-bis(p-hydroxyphenyl)-1,4-pyrazine]",melting point,,175 °C (dec.)
CCOC(=O)C(C)Nc1nc(NC(C)C(=O)OCC)c(-c2ccccc2)nc1-c1ccccc1 (centres unmarked) [JFC 39],"antioxidative activity (inhibition of AAPH-induced peroxidation of linoleic acid), in words",[1]; 5 μM,active
"Nc1nc(N)c(-c2ccc(O)cc2)nc1-c1ccc(O)cc1 [JFC28, 2,6-diamino-3,5-bis(p-hydroxyphenyl)-1,4-pyrazine]","antioxidative activity (inhibition of AAPH-induced peroxidation of linoleic acid), in words",[1]; 5 μM,does not improve the activity
"COc1ccc(-c2cnc(N)c(-c3ccc(OC)cc3)n2)cc1 [CD29, 2-Amino-3,5-bis(p-methoxyphenyl)-1,4-pyrazine, reference compound]",A234 (amount of conjugated dienes formed by the peroxidative process),[1],0.37
same,"antioxidative activity (inhibition of lipid peroxidation), in words",[1],reduced activities
Nc1nc(N)c(-c2ccccc2)nc1-c1ccccc1 [JFC 33],"antioxidative activity (inhibition of AAPH-induced peroxidation of linoleic acid), in words",[1]; 5 μM,active
"Nc1ncc(-c2ccc(O)cc2)nc1-c1ccc(O)cc1 [CD31, 2-amino-3,5-bis(p-hydroxyphenyl)-1,4-pyrazine]",A234 (amount of conjugated dienes formed by the peroxidative process),[1],0.08
same,"antioxidative activity (inhibition of lipid peroxidation), in words",[1],very active
same,"Percentage Mortality (LDH assay), Unirradiated cells",[2]; 50 μM,0%
same,mortality at 50 µM,[2]; 50 μM,0%
"CCOC(=O)C(C)Nc1nc(NC(C)C(=O)OCC)c(-c2ccc(O)cc2)nc1-c1ccc(O)cc1 (centres unmarked) [JFC38, 2,6-Bis(1′-ethoxycarbonyl-ethylamino)-3,5-bis(p-hydroxyphenyl)-1,4-pyrazine]","antioxidative activity (inhibition of AAPH-induced peroxidation of linoleic acid), in words",[1]; 5 μM,very active
"Cc1nc2c(-c3ccc(O)cc3)[nH]c(-c3ccccc3)cn-2c1=O (as salt: hydrochloride) (hydrate or solvate) [CD52, 2-Methyl-6-phenyl-8-(p-hydroxyphenyl)-3,7-dihydroimidazolo[1,2-a]pyrazin-3-one]",melting point,,99.5 °C (dec.)
